In ChEMBL document CHEMBL3400015, “Tertiary amides of Salinomycin: A new group of antibacterial agents against Bacillus anthracis and methicillin-resistant Staphylococcus epidermidis” (Bioorg Med Chem Lett, 2015):
In brackets after ≈: the same amount, converted by molar mass.

Tests used:
[1] = tested on: Staphylococcus epidermidis; assay: Bactericidal activity against methicillin-resistant Staphylococcus epidermidis isolate 422/10 after 24 hrs; type: functional; details: isolate 422/10, 24 h, read-out: MBC99.9
Staphylococcus aureus [2] = assay: Antimicrobial activity against Staphylococcus aureus ATCC 25923 after 18 hrs by twofold serial broth dilution method; type: functional; details: ATCC 25923, 18 h
Escherichia coli [3] = assay: Bactericidal activity against Escherichia coli NCTC 8196 after 24 hrs; type: functional; details: NCTC 8196, 24 h, read-out: MBC99.9
Escherichia coli [4] = assay: Bactericidal activity against Escherichia coli ATCC 10538 after 24 hrs; type: functional; details: ATCC 10538, 24 h, read-out: MBC99.9
[5] = tested on: Staphylococcus epidermidis; assay: Bactericidal activity against methicillin-resistant Staphylococcus epidermidis isolate 454/11 after 24 hrs; type: functional; details: isolate 454/11, 24 h, read-out: MBC99.9
Escherichia coli [6] = assay: Bactericidal activity against Escherichia coli ATCC 25922 after 24 hrs; type: functional; details: ATCC 25922, 24 h, read-out: MBC99.9
Escherichia coli [7] = assay: Antimicrobial activity against Escherichia coli ATCC 10538 after 18 hrs by twofold serial broth dilution method; type: functional; details: ATCC 10538, 18 h
Staphylococcus aureus [8] = assay: Bactericidal activity against Staphylococcus aureus ATCC 25923 after 24 hrs; type: functional; details: ATCC 25923, 24 h, read-out: MBC99.9
[9] = tested on: Staphylococcus epidermidis; assay: Bactericidal activity against methicillin-resistant Staphylococcus epidermidis isolate 409/10 after 24 hrs; type: functional; details: isolate 409/10, 24 h, read-out: MBC99.9
[10] = tested on: Staphylococcus epidermidis; assay: Antimicrobial activity against methicillin-resistant Staphylococcus epidermidis isolate 459/11 after 18 hrs by twofold serial broth dilution method; type: functional; details: isolate 459/11, 18 h
[11] = tested on: Staphylococcus epidermidis; assay: Antimicrobial activity against methicillin-resistant Staphylococcus epidermidis isolate 424/10 after 18 hrs by twofold serial broth dilution method; type: functional; details: isolate 424/10, 18 h
[12] = tested on: Staphylococcus epidermidis; assay: Antimicrobial activity against methicillin-resistant Staphylococcus epidermidis isolate 422/10 after 18 hrs by twofold serial broth dilution method; type: functional; details: isolate 422/10, 18 h
[13] = tested on: Staphylococcus epidermidis; assay: Bactericidal activity against methicillin-resistant Staphylococcus epidermidis isolate 405/10 after 24 hrs; type: functional; details: isolate 405/10, 24 h, read-out: MBC99.9
Bacillus anthracis = assay: Antimicrobial activity against Bacillus anthracis 34F2 after 18 hrs by twofold serial broth dilution method; type: functional; details: 34F2, 18 h
[14] = tested on: Staphylococcus epidermidis; assay: Bactericidal activity against methicillin-resistant Staphylococcus epidermidis isolate 424/10 after 24 hrs; type: functional; details: isolate 424/10, 24 h, read-out: MBC99.9
Pseudomonas aeruginosa [15] = assay: Antimicrobial activity against Pseudomonas aeruginosa NCTC 6749 after 18 hrs by twofold serial broth dilution method; type: functional; details: NCTC 6749, 18 h
[16] = tested on: Staphylococcus epidermidis; assay: Antimicrobial activity against methicillin-resistant Staphylococcus epidermidis isolate 455/11 after 18 hrs by twofold serial broth dilution method; type: functional; details: isolate 455/11, 18 h
[17] = tested on: Staphylococcus epidermidis; assay: Antimicrobial activity against methicillin-resistant Staphylococcus epidermidis isolate 469/11 after 18 hrs by twofold serial broth dilution method; type: functional; details: isolate 469/11, 18 h
[18] = tested on: Staphylococcus epidermidis; assay: Antimicrobial activity against Staphylococcus epidermidis ATCC 35984 after 18 hrs by twofold serial broth dilution method; type: functional; details: ATCC 35984, 18 h
Bacillus subtilis [19] = assay: Genotoxicity in rec-positive Bacillus subtilis H17 at 2 ug/9 mm disc after 24 hrs by disc diffusion method; type: toxicity, organism-based
Staphylococcus aureus [20] = assay: Antimicrobial activity against Staphylococcus aureus […] after 18 hrs by twofold serial broth dilution method; type: functional
[21] = tested on: Staphylococcus epidermidis; assay: Bactericidal activity against methicillin-resistant Staphylococcus epidermidis isolate 469/11 after 24 hrs; type: functional; details: isolate 469/11, 24 h, read-out: MBC99.9
[22] = tested on: Staphylococcus epidermidis; assay: Antimicrobial activity against methicillin-resistant Staphylococcus epidermidis isolate 404/10 after 18 hrs by twofold serial broth dilution method; type: functional; details: isolate 404/10, 18 h
[23] = tested on: Staphylococcus epidermidis; assay: Antimicrobial activity against methicillin-resistant Staphylococcus epidermidis isolate 470/11 after 18 hrs by twofold serial broth dilution method; type: functional; details: isolate 470/11, 18 h
[24] = tested on: Staphylococcus epidermidis; assay: Antimicrobial activity against methicillin-resistant Staphylococcus epidermidis isolate 461/11 after 18 hrs by twofold serial broth dilution method; type: functional; details: isolate 461/11, 18 h
[25] = tested on: Staphylococcus epidermidis; assay: Bactericidal activity against methicillin-resistant Staphylococcus epidermidis isolate 455/11 after 24 hrs; type: functional; details: isolate 455/11, 24 h, read-out: MBC99.9
[26] = tested on: Staphylococcus epidermidis; assay: Antimicrobial activity against methicillin-resistant Staphylococcus epidermidis isolate 454/11 after 18 hrs by twofold serial broth dilution method; type: functional; details: isolate 454/11, 18 h
Pseudomonas aeruginosa [27] = assay: Antimicrobial activity against Pseudomonas aeruginosa ATCC 15442 after 18 hrs by twofold serial broth dilution method; type: functional; details: ATCC 15442, 18 h
[28] = tested on: Staphylococcus epidermidis; assay: Antimicrobial activity against methicillin-resistant Staphylococcus epidermidis isolate 457/11 after 18 hrs by twofold serial broth dilution method; type: functional; details: isolate 457/11, 18 h
Staphylococcus aureus [29] = assay: Bactericidal activity against Staphylococcus aureus ATCC 6538 after 24 hrs; type: functional; details: ATCC 6538, 24 h, read-out: MBC99.9
[30] = tested on: Staphylococcus epidermidis; assay: Antimicrobial activity against methicillin-resistant Staphylococcus epidermidis isolate 403/10 after 18 hrs by twofold serial broth dilution method; type: functional; details: isolate 403/10, 18 h
[31] = tested on: Staphylococcus epidermidis; assay: Bactericidal activity against methicillin-resistant Staphylococcus epidermidis isolate 460/11 after 24 hrs; type: functional; details: isolate 460/11, 24 h, read-out: MBC99.9
[32] = tested on: Staphylococcus epidermidis; assay: Antimicrobial activity against methicillin-resistant Staphylococcus epidermidis isolate 409/10 after 18 hrs by twofold serial broth dilution method; type: functional; details: isolate 409/10, 18 h
Staphylococcus aureus [33] = assay: Antimicrobial activity against Staphylococcus aureus ATCC 6538 after 18 hrs by twofold serial broth dilution method; type: functional; details: ATCC 6538, 18 h
Pseudomonas aeruginosa [34] = assay: Bactericidal activity against Pseudomonas aeruginosa ATCC 27853 after 24 hrs; type: functional; details: ATCC 27853, 24 h, read-out: MBC99.9
Staphylococcus aureus [35] = assay: Bactericidal activity against Staphylococcus aureus […] after 24 hrs; type: functional; details: read-out: MBC99.9
Bacillus subtilis [36] = assay: Genotoxicity in rec-negative Bacillus subtilis M45 at 2 ug/9 mm disc after 24 hrs by disc diffusion method; type: toxicity, organism-based
[37] = tested on: Staphylococcus epidermidis; assay: Bactericidal activity against Staphylococcus epidermidis ATCC 35984 after 24 hrs; type: functional; details: ATCC 35984, 24 h, read-out: MBC99.9
[38] = tested on: Staphylococcus epidermidis; assay: Bactericidal activity against methicillin-resistant Staphylococcus epidermidis isolate 403/10 after 24 hrs; type: functional; details: isolate 403/10, 24 h, read-out: MBC99.9
Escherichia coli [39] = assay: Antimicrobial activity against Escherichia coli NCTC 8196 after 18 hrs by twofold serial broth dilution method; type: functional; details: NCTC 8196, 18 h
[40] = tested on: Staphylococcus epidermidis; assay: Antimicrobial activity against methicillin-resistant Staphylococcus epidermidis isolate 405/10 after 18 hrs by twofold serial broth dilution method; type: functional; details: isolate 405/10, 18 h
Pseudomonas aeruginosa [41] = assay: Bactericidal activity against Pseudomonas aeruginosa ATCC 15442 after 24 hrs; type: functional; details: ATCC 15442, 24 h, read-out: MBC99.9
[42] = tested on: Staphylococcus epidermidis; assay: Bactericidal activity against methicillin-resistant Staphylococcus epidermidis isolate 404/10 after 24 hrs; type: functional; details: isolate 404/10, 24 h, read-out: MBC99.9

## CC[C@@H](C(=O)[C@@H](C)[C@@H](O)[C@H](C)[C@@H]1O[C@@H]([C@@H](CC)C(=O)N(CC)CC)CC[C@@H]1C)[C@H]1O[C@]2(C=C[C@@H](O)[C@]3(CC[C@@](C)([C@H]4CC[C@](O)(CC)[C@H](C)O4)O3)O2)[C@H](C)C[C@@H]1C
[1]
  MBC: 256 µg/mL (≈ 318 µM)
Staphylococcus aureus [2]
  MIC: 2 µg/mL (≈ 2.48 µM)
Escherichia coli [3]
  MBC: > 256 µg/mL
Escherichia coli [4]
  MBC: > 256 µg/mL
[5]
  MBC: 128 µg/mL (≈ 159 µM)
Escherichia coli [6]
  MBC: > 256 µg/mL
Escherichia coli [7]
  MIC: > 256 µg/mL
Staphylococcus aureus [8]
  MBC: 64 µg/mL (≈ 79.4 µM)
[9]
  MBC: 256 µg/mL (≈ 318 µM)
[10]
  MIC: 4 µg/mL (≈ 4.96 µM)
[11]
  MIC: 8 µg/mL (≈ 9.92 µM)
[12]
  MIC: 8 µg/mL (≈ 9.92 µM)
[13]
  MBC: 256 µg/mL (≈ 318 µM)
Bacillus anthracis
  MIC: 1 µg/mL (≈ 1.24 µM)
[14]
  MBC: 256 µg/mL (≈ 318 µM)
Pseudomonas aeruginosa [15]
  MIC: > 256 µg/mL
[16]
  MIC: 8 µg/mL (≈ 9.92 µM)
[17]
  MIC: 8 µg/mL (≈ 9.92 µM)
[18]
  MIC: 4 µg/mL (≈ 4.96 µM)
Bacillus subtilis [19]
  diameter of the inhibition zone (DIZ): 26 mm
Staphylococcus aureus [20]
  MIC: 4 µg/mL (≈ 4.96 µM)
[21]
  MBC: 256 µg/mL (≈ 318 µM)
[22]
  MIC: 4 µg/mL (≈ 4.96 µM)
[23]
  MIC: 4 µg/mL (≈ 4.96 µM)
[24]
  MIC: 4 µg/mL (≈ 4.96 µM)
[25]
  MBC: 256 µg/mL (≈ 318 µM)
[26]
  MIC: 4 µg/mL (≈ 4.96 µM)
Pseudomonas aeruginosa [27]
  MIC: > 256 µg/mL
[28]
  MIC: 4 µg/mL (≈ 4.96 µM)
Staphylococcus aureus [29]
  MBC: 64 µg/mL (≈ 79.4 µM)
[30]
  MIC: 4 µg/mL (≈ 4.96 µM)
[31]
  MBC: 256 µg/mL (≈ 318 µM)
[32]
  MIC: 4 µg/mL (≈ 4.96 µM)
Staphylococcus aureus [33]
  MIC: 2 µg/mL (≈ 2.48 µM)
Pseudomonas aeruginosa [34]
  MBC: > 256 µg/mL
Staphylococcus aureus [35]
  MBC: 64 µg/mL (≈ 79.4 µM)
Bacillus subtilis [36]
  diameter of the inhibition zone (DIZ): 26 mm
[37]
  MBC: 128 µg/mL (≈ 159 µM)
[38]
  MBC: 256 µg/mL (≈ 318 µM)
Escherichia coli [39]
  MIC: > 256 µg/mL
[40]
  MIC: 8 µg/mL (≈ 9.92 µM)
Pseudomonas aeruginosa [41]
  MBC: > 256 µg/mL
[42]
  MBC: 256 µg/mL (≈ 318 µM)
